Source: patent publication US9855230B2 (ViiV Healthcare UK (No. 5) Limited, priority 2014, dated 2018)
Where two headings read alike, the source gives them in different places.

Experiments:
[1] = system: recombinant NL4-3 virus (nef section replaced with Renilla luciferase gene) in MT-2 cells; experiment: whole plant or invertebrate; type: cell-based, HIV; settings: NL43, luciferase activity in MT-2 cells infected 4-5 days with recombinant NL4-3 virus
Excerpt: A recombinant NL4-3 proviral clone, in which a section of the nef gene was replaced with the Renilla luciferase gene, was used to make the reference virus used in these studies.
Supernatent was harvested after 2-3 days and the amount of virus present was titered in MT-2 cells using luciferase enzyme activity as a marker by measuring luciferase enzyme activity. Luciferase was quantitated using the EnduRen Live Cell Substrate from Promega (Madison, Wis.). Antiviral activities of compounds toward the recombinant virus were quantified by measuring luciferase activity in MT-2 cells infected for 4-5 days with the recombinant virus in the presence of serial dilutions of the compound.

[2] = Compound cytotoxicity (CC50), XTT-based colorimetric assay; type: cell-based; settings: human; uninfected MT2 cells, day 4, XTT assay
Protocol: Compound cytotoxicity and the corresponding CC50 values were determined using the same protocol as described in the antiviral assay except that uninfected cells were used. Cytotoxicity was assessed on day 4 in uninfected MT2 cells by using a XTT (2,3-bis[2-Methoxy-4-nitro-5-sulfophenyl]-2H-tetrazolium-5-carboxyanilide inner salt)-based colorimetric assay (Sigma-Aldrich, St Louis, Mo.).

SMILES | EC50 ([1]; read-out: Activity) | EC50 ([1]; read-out: EC50) | CC50 at 4 day [2]
CCOc1cccc(-n2ccnc2[C@H](Cc2ccccc2)NC(=O)NS(=O)(=O)c2ccccc2C)c1 [Example 24, (S)-N-((1-(1-(3-ethoxyphenyl)-1H-imidazol-2-yl)-2-phenylethyl)carbamoyl)-2-methylbenzenesulfonamide] | 100 to 1000 nM | 600 nM | > 100000 nM
CCCOc1ccc(-n2ccnc2[C@H](Cc2ccccc2)NC(=O)NS(=O)(=O)c2ccccc2C)cc1Cl [Example 25, (S)-N-((1-(1-(3-chloro-4-propoxyphenyl)-1H-imidazol-2-yl)-2-phenylethyl)carbamoyl)-2-methylbenzenesulfonamide] | < 100 nM | – | 50000 nM
CCOc1ccc(-n2ccnc2[C@H](Cc2ccccc2)NC(=O)NS(=O)(=O)c2ccccc2C)cc1Cl [Example 26, (S)-N-((1-(1-(3-chloro-4-ethoxyphenyl)-1H-imidazol-2-yl)-2-phenylethyl)carbamoyl)-2-methylbenzenesulfonamide] | < 100 nM | – | > 100000 nM
Cc1ccccc1S(=O)(=O)NC(=O)N[C@@H](Cc1ccccc1)c1nccn1-c1ccc2c(c1)OCO2 [Example 27, (S)-N-((1-(1-(benzo[d][1,3]dioxol-5-yl)-1H-imidazol-2-yl)-2-phenylethyl)carbamoyl)-2-methylbenzenesulfonamide] | < 100 nM | 70 nM | > 100000 nM
Cc1ccccc1-n1ccnc1[C@H](Cc1ccccc1)NC(=O)NS(=O)(=O)c1ccccc1C [Example 28, (S)-2-methyl-N-((2-phenyl-1-(1-(o-tolyl)-1H-imidazol-2-yl)ethyl)carbamoyl)benzenesulfonamide] | > 1000 nM | – | > 100000 nM
Cc1ccccc1S(=O)(=O)NC(=O)N[C@@H](Cc1ccccc1)c1nccn1-c1ccc(OCc2ccccc2)cc1 [Example 30, (S)-N-((1-(1-(4-(benzyloxy)phenyl)-1H-imidazol-2-yl)-2-phenylethyl)carbamoyl)-2-methylbenzenesulfonamide] | 100 to 1000 nM | 280 nM | > 100000 nM
Cc1ccccc1S(=O)(=O)NC(=O)N[C@@H](Cc1ccccc1)c1nccn1-c1ccccc1 [Example 31, (S)-2-methyl-N-((2-phenyl-1-(1-phenyl-1H-imidazol-2-yl)ethyl)carbamoyl)benzenesulfonamide] | 100 to 1000 nM | – | > 100000 nM
Cc1ccc(-n2ccnc2[C@H](Cc2ccccc2)NC(=O)NS(=O)(=O)c2ccccc2C)cc1Cl [Example 32, (S)-N-((1-(1-(3-chloro-4-methylphenyl)-1H-imidazol-2-yl)-2-phenylethyl)carbamoyl)-2-methylbenzenesulfonamide] | < 100 nM | – | > 100000 nM
Cc1ccccc1S(=O)(=O)NC(=O)N[C@@H](Cc1ccccc1)c1nccn1-c1ccc([N+](=O)[O-])cc1 [Example 33, (S)-2-methyl-N-((1-(1-(4-nitrophenyl)-1H-imidazol-2-yl)-2-phenylethyl)carbamoyl)benzenesulfonamide] | 100 to 1000 nM | 190 nM | > 100000 nM
CCOC(=O)Nc1ccc(-n2ccnc2[C@H](Cc2ccccc2)NC(=O)NS(=O)(=O)c2ccccc2C)cc1 [Example 34, (S)-ethyl (4-(2-(2-phenyl-1-(3-(o-tolylsulfonyl)ureido)ethyl)-1H-imidazol-1-yl)phenyl)carbamate] | < 100 nM | – | > 100000 nM
CC(=O)Nc1ccc(-n2ccnc2[C@H](Cc2ccccc2)NC(=O)NS(=O)(=O)c2ccccc2C)cc1 [Example 35, (S)-N-(4-(2-(2-phenyl-1-(3-(o-tolylsulfonyl)ureido)ethyl)-1H-imidazol-1-yl)phenyl)acetamide] | 100 to 1000 nM | – | > 33000 nM
COC(=O)Nc1ccc(-n2ccnc2[C@H](Cc2ccccc2)NC(=O)NS(=O)(=O)c2ccccc2Cl)cc1 [Example 36, (S)-methyl (4-(2-(1-(3-((2-chlorophenyl)sulfonyl)ureido)-2-phenylethyl)-1H-imidazol-1-yl)phenyl)carbamate] | < 100 nM | 60 nM | > 100000 nM
COC(=O)Nc1ccc(-n2ccnc2[C@H](Cc2ccccc2)NC(=O)NS(=O)(=O)c2ccccc2)cc1 [Example 37, (S)-methyl (4-(2-(2-phenyl-1-(3-(phenylsulfonyl)ureido)ethyl)-1H-imidazol-1-yl)phenyl)carbamate] | 100 to 1000 nM | – | > 33000 nM
COC(=O)Nc1ccc(-n2ccnc2[C@H](Cc2ccccc2)NC(=O)NS(=O)(=O)c2ccc(C)cc2)cc1 [Example 38, (S)-methyl (4-(2-(2-phenyl-1-(3-tosylureido)ethyl)-1H-imidazol-1-yl)phenyl)carbamate] | 100 to 1000 nM | – | > 100000 nM
COC(=O)Nc1ccc(-n2ccnc2[C@@H](Cc2ccccc2)NC(=O)NS(=O)(=O)c2ccccc2C)cc1 [Example 39] | > 1000 nM | 1420 nM | > 11000 nM
COc1ccc(Cn2ccnc2[C@H](Cc2ccccc2)NC(=O)NS(=O)(=O)c2ccccc2C)cc1 [Example 40, (S)-N-((1-(1-(4-methoxybenzyl)-1H-imidazol-2-yl)-2-phenylethyl)carbamoyl)-2-methylbenzenesulfonamide] | 100 to 1000 nM | – | > 33000 nM
COc1ccc(Cn2ccnc2[C@H](Cc2ccccc2)NC(=O)NS(=O)(=O)c2ccccc2Cl)cc1 [Example 41, (S)-2-chloro-N-((1-(1-(4-methoxybenzyl)-1H-imidazol-2-yl)-2-phenylethyl)carbamoyl)benzenesulfonamide] | 100 to 1000 nM | – | > 33000 nM
Cc1ccccc1S(=O)(=O)NC(=O)N[C@@H](Cc1ccccc1)c1nccn1-c1ccc(N)cc1 [Example 42, (S)-N-((1-(1-(4-aminophenyl)-1H-imidazol-2-yl)-2-phenylethyl)carbamoyl)-2-methylbenzenesulfonamide] | < 100 nM | 40 nM | > 100000 nM
COC(=O)Nc1ccc(-n2ccnc2[C@H](Cc2ccccc2)NC(=O)NS(=O)(=O)c2ccccc2OC)cc1 [Example 44, (S)-methyl (4-(2-(1-(3-((2-methoxyphenyl)sulfonyl)ureido)-2-phenylethyl)-1H-imidazol-1-yl)phenyl)carbamate] | < 100 nM | – | > 100000 nM
COC(=O)Nc1ccc(-n2ccnc2[C@H](Cc2ccccc2)NC(=O)NS(=O)(=O)c2ccccc2OC(F)(F)F)cc1 [Example 45, (S)-methyl (4-(2-(2-phenyl-1-(3-((2-(trifluoromethoxy)phenyl)sulfonyl)ureido)ethyl)-1H-imidazol-1-yl)phenyl)carbamate] | < 100 nM | 60 nM | > 100000 nM
COC(=O)Nc1ccc(-n2ccnc2[C@H](Cc2ccccc2)NC(=O)NS(=O)(=O)c2ccc(C)s2)cc1 [Example 46, (S)-methyl (4-(2-(1-(3-((5-methylthiophen-2-yl)sulfonyl)ureido)-2-phenylethyl)-1H-imidazol-1-yl)phenyl)carbamate] | 100 to 1000 nM | – | > 100000 nM
COC(=O)Nc1ccc(-n2ccnc2[C@H](Cc2ccccc2)NC(=O)NS(=O)(=O)Cc2ccccc2)cc1 [Example 47, (S)-methyl (4-(2-(1-(3-(benzylsulfonyl)ureido)-2-phenylethyl)-1H-imidazol-1-yl)phenyl)carbamate] | 100 to 1000 nM | – | > 33000 nM
COC(=O)Nc1ccc(-n2ccnc2[C@H](Cc2ccccc2)NC(=O)NS(=O)(=O)Cc2cccc(Cl)c2)cc1 [Example 48, (S)-methyl (4-(2-(1-(3-((3-chlorobenzyl)sulfonyl)ureido)-2-phenylethyl)-1H-imidazol-1-yl)phenyl)carbamate] | < 100 nM | 70 nM | > 100000 nM
COC(=O)Nc1ccc(-n2ccnc2[C@H](Cc2ccccc2)NC(=O)NS(=O)(=O)c2c(F)cccc2F)cc1 [Example 50, (S)-methyl (4-(2-(1-(3-((2,6-difluorophenyl)sulfonyl)ureido)-2-phenylethyl)-1H-imidazol-1-yl)phenyl)carbamate] | 100 to 1000 nM | – | > 100000 nM
COC(=O)Nc1ccc(-n2ccnc2[C@H](Cc2ccccc2)NC(=O)NS(=O)(=O)c2cccc(Cl)c2Cl)cc1 [Example 51, (S)-methyl (4-(2-(1-(3-((2,3-dichlorophenyl)sulfonyl)ureido)-2-phenylethyl)-1H-imidazol-1-yl)phenyl)carbamate] | 100 to 1000 nM | 160 nM | > 100000 nM
COC(=O)Nc1ccc(-n2ccnc2[C@H](Cc2ccccc2)NC(=O)NS(=O)(=O)C(C)C)cc1 [Example 52, (S)-methyl (4-(2-(1-(3-(isopropylsulfonyl)ureido)-2-phenylethyl)-1H-imidazol-1-yl)phenyl)carbamate] | 100 to 1000 nM | – | > 100000 nM
COC(=O)Nc1ccc(-n2ccnc2[C@H](Cc2ccccc2)NC(=O)NS(=O)(=O)C2CC2)cc1 [Example 53, (S)-methyl (4-(2-(1-(3-(cyclopropylsulfonyl)ureido)-2-phenylethyl)-1H-imidazol-1-yl)phenyl)carbamate] | 100 to 1000 nM | – | > 100000 nM
COC(=O)Nc1ccc(-n2ccnc2[C@H](Cc2ccccc2)NC(=O)NS(=O)(=O)c2cccc(Cl)c2)cc1 [Example 54, (S)-methyl (4-(2-(1-(3-((3-chlorophenyl)sulfonyl)ureido)-2-phenylethyl)-1H-imidazol-1-yl)phenyl)carbamate] | 100 to 1000 nM | 150 nM | > 100000 nM
